In article PMC12473906, “Comparing the Altis RepliGut Organoid System to MDCK Monolayers in Predicting the Oral Absorption of Lenalidomide” (Pharmaceutics, 2025):
Entries after “also recorded” stand apart in the source; their conditions may differ.

Tests used:
[1] = target: T1, P-gp (MDR1) (Homo sapiens, UniProt P08183); assay: Bidirectional permeability in gMDCK cells overexpressing human P-gp (gMDCK-MDR1); type: in vitro ADME; details: human, MDCK-MDR1, pH 7.4; gMDCK-MDR1
T1 construct: expressed in transfected cells; host or cells: gMDCK (P-gp-knockout Madin-Darby Canine Kidney cells), puromycin selection
T1 sequence (P08183 whole entry): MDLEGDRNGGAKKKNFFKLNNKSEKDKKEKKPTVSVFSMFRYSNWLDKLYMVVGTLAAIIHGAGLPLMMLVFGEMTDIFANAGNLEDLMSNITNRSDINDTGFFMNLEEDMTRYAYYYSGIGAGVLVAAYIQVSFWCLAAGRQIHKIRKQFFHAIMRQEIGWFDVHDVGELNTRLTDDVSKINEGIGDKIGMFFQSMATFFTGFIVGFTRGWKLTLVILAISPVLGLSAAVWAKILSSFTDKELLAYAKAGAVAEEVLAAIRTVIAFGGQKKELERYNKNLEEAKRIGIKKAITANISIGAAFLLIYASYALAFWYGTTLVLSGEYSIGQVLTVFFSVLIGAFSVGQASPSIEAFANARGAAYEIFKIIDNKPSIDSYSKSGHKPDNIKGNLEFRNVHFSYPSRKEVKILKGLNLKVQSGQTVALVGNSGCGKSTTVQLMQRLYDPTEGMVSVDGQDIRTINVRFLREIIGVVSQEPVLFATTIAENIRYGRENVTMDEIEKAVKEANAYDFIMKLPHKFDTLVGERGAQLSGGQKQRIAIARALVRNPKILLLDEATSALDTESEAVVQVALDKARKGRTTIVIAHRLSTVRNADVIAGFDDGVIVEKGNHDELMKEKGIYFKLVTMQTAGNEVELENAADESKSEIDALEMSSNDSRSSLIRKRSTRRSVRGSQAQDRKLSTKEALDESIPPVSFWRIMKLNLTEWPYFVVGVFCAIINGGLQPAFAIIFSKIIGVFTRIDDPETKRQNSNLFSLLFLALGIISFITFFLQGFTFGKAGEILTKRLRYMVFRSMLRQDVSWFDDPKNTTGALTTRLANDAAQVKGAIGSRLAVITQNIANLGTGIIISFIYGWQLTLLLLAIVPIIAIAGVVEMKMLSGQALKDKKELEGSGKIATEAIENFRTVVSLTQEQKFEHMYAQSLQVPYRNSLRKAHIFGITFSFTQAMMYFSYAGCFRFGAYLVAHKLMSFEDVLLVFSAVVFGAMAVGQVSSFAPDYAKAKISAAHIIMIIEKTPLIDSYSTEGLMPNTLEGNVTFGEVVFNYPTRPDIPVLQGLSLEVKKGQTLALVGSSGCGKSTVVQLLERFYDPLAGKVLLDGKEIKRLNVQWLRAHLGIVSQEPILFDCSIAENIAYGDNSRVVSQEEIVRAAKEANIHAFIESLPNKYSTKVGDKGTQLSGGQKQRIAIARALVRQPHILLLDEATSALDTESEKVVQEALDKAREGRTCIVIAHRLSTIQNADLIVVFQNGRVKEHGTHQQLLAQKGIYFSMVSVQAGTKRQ
Procedure: (§1) gMDCK cells were maintained in Dulbecco’s Modified Eagle’s Medium (DMEM) supplemented with Gibco’s MEM amino acids solution (1 X), penicillin (100 units/mL), streptomycin ([…]), and 10% fetal bovine serum and in a humidified, 37 °C, 5% CO2 environment as previously described. Efflux transporter-expressing gMDCK cells, gMDCK-P-gp and gMDCK-BCRP, were cultured in the above-mentioned medium with addition of puromycin (2 µg/mL). All cells were passaged at approximately 80% confluency in T-175 flasks. For permeability assays, gMDCK, gMDCK-P-gp, and gMDCK-BCRP cells were seeded on 96 transwell plates (approximately 40,000 cells/well) and allowed to grow for 48 h in a 37 °C, 5% CO2 environment. Digitonin (10–40 mg/L) was included in some experiments to loosen tight junctions to explore paracellular permeability. TEER values were measured on the day of the experiment using an EVOM^TM Auto (World Precision Instruments, Sarasota, FL, USA).
(§2) Lenalidomide dosing solutions (1–500 µM) were diluted from DMSO stock (500 mM) with HEPES-buffered HBSS (with Ca^2+ and Mg^2+, 10 mM HEPES, pH 7.4) + 20 µM Lucifer yellow resulting in a final DMSO content of 0.2%. Lucifer yellow was measured fluorometrically (Ex/Em 428/532 nm) to assess tight junctions/paracellular transport. Permeability of lenalidomide was assessed bidirectionally in both in vitro models over three hours, and cell monolayers were collected at the end of the experiment.
(§3) Briefly, for assessing apical to basolateral (A to B) permeability, 150 uL of lenalidomide dosing solutions was added to apical side of the transwell, and 250 uL of HEPES-buffered HBSS without Lucifer yellow was added to basolateral side. For evaluating basolateral to apical (B to A) permeability, 250 uL of dosing solutions was added to the basolateral side, and 150 uL of HEPES-buffered HBSS without Lucifer yellow was added to the apical side. An amount of 10 µL was sampled from the dosing side of the transwell at the beginning and the end of the experiment. An amount of 25 µL was sampled from the receiver side at 1, 2, and 3 h.
(§4) Apparent permeability (Papp) was calculated according to the following equation: Papp = (dQ/dt)/(A * C), where dQ/dt is the amount of drug that crosses the membrane per unit of time, A is the surface area of the membrane through which the drug is permeating (0.143 cm^2), and C is the initial concentration added to cells. The efflux ratio was calculated according to the following equation:(4) Efflux ratio= Papp basolateral to apical/Papp apical to basolateral

[2] = target: T2, human P-gp (Homo sapiens, UniProt P08183); assay: as above; type: in vitro ADME; details: gMDCK P-gp overexpressing cells and organoids
T2 construct: expressed in transfected cells; host or cells: gMDCK (P-gp-knockout Madin-Darby Canine Kidney cells), puromycin selection
T2 sequence (P08183 whole entry): as above
Procedure: as §1, §2, §3, §4

[3] = target: T3, BCRP (Homo sapiens, UniProt Q9UNQ0); assay: Bidirectional permeability in gMDCK cells overexpressing human BCRP (gMDCK-BCRP); type: in vitro ADME
T3 construct: expressed in transfected cells; host or cells: gMDCK (P-gp-knockout Madin-Darby Canine Kidney cells), puromycin selection
T3 sequence (Q9UNQ0 1-655): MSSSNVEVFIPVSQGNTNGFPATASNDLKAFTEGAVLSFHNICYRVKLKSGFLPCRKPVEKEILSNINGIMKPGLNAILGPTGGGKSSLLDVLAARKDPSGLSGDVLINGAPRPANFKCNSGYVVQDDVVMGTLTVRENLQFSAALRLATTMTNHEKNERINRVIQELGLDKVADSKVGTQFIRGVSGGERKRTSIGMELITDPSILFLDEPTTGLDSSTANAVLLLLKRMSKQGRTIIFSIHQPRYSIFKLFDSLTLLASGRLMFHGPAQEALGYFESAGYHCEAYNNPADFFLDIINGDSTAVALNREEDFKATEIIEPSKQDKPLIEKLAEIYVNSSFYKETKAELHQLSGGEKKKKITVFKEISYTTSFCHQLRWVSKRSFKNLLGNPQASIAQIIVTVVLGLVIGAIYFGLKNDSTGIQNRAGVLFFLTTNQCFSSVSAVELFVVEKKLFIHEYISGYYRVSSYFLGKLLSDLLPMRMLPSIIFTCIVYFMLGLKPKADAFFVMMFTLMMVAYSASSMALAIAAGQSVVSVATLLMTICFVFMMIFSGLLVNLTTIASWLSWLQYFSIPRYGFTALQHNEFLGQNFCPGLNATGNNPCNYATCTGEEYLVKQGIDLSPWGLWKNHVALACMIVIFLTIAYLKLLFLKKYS
Procedure: as §1, §2, §3, §4

[4] = cited from earlier work

Papp A→B at 3 h [1]: 0.2 ×10⁻⁶ cm/s
Papp B→A at 3 h [1]: 2.8 ×10⁻⁶ cm/s
efflux ratio at 3 h [1]: 14
Papp A→B at 3 h ([3]; human, pH 7.4, gMDCK-BCRP): 0.15 ×10⁻⁶ cm/s
Papp B→A at 3 h ([3]; human, pH 7.4, gMDCK-BCRP): 2.4 ×10⁻⁶ cm/s
efflux ratio at 3 h ([3]; human, pH 7.4, gMDCK-BCRP): 16
SMILES: Nc1cccc2c1CN(C1CCC(=O)NC1=O)C2=O (stereo not shown) [Lenalidomide]
P-gp substrate [2]: substrate for both transporters; also recorded: substrate of both P-gp and BCRP
BCRP substrate ([3]; gMDCK BCRP overexpressing cells and organoids): substrate for both transporters; also recorded: substrate of both P-gp and BCRP
Human Fa (fraction absorbed) [4]: 90% [21]
Elimination half-life ([4]; humans): 3 to 5 h
Metabolism ([4]; humans): < 5%
Oral bioavailability ([4]; humans): > 90%
Route of elimination ([4]; humans): Renal
